In series [1] the target is T1, CAR (nuclear receptor subfamily 1 group I member 3) (Homo sapiens, UniProt Q14994).
T1 sequence (Q14994 whole entry): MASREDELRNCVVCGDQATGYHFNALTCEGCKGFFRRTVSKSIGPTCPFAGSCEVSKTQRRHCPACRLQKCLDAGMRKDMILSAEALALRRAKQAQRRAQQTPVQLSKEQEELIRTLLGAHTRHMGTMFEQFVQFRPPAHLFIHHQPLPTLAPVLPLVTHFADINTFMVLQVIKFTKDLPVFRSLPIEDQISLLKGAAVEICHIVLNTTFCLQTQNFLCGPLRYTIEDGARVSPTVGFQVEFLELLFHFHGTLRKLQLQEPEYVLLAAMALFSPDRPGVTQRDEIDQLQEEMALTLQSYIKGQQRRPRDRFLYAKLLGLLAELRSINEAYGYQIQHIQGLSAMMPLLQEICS
Kind of series: Agonist activity at human Gal4-CARalpha-LBD expressed in HEK293T cells transfected with pFR-Luc/pRLSV40 assessed as relative luminescence at 1 uM measured after 14 to 16 hrs by hybrid reporter gene assay. In kind it is cell-based. Particulars: time 14-16 hrs, read-out: Activity.

The target in series [2] is T2, Nuclear receptor subfamily 1 group I member 2 (Homo sapiens, UniProt O75469).
T2 sequence (O75469 whole entry): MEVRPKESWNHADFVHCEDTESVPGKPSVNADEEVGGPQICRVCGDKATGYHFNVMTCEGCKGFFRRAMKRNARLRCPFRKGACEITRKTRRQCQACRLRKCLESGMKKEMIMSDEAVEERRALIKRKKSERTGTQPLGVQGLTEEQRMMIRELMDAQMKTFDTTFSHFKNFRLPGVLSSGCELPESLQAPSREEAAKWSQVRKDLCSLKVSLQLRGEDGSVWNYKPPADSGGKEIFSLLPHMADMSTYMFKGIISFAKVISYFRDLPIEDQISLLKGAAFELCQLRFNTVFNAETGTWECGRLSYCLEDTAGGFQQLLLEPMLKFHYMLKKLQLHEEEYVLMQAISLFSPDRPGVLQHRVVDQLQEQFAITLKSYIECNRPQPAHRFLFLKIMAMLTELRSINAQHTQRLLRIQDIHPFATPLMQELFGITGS
The series is described as follows: Agonist activity at human Gal4-PXR-LBD expressed in HEK293T cells transfected with pFR-Luc/pRLSV40 assessed as relative luminescence at 1 uM measured after 14 to 16 hrs by hybrid reporter gene assay. In kind it is cell-based. Conditions: time 14-16 hrs. (Reporter assays use an easily measured gene product as a stand-in for the process of interest.)

Turning to `Cc1ccc(C#Cc2ccc(O)c(C(=O)O)c2)c(Cl)c1`, the activity at 1 µM in series [1] is less than 20%. Besides, in series [2], the Activity is recorded as less than 20%.

The values above are taken from ChEMBL document CHEMBL6177992, “A First-in-Class Hepatocyte Nuclear Factor 4 Agonist” (J Med Chem, 2025).
